Data set [1] concerns NCI/ADR-RES. The data set can be described thus: Cytotoxicity against DOX-resistant human MCF7/ADR cells assessed as reversal fold of resistance by measuring ratio of doxorubicin IC50 alone to doxorubicin IC50 in presence of test compound incubated for 48 hrs by CCK8 assay. In kind it is functional. (In general: Tetrazolium assays rely on reduction of a dye to a coloured formazan, in cell work by metabolically active cells.)

The subject of data set [2] is NCI/ADR-RES. Description: Cytotoxicity against DOX-resistant human MCF7/ADR cells assessed as cell growth inhibition at 5 uM incubated for 48 hrs by CCK8 assay relative to control. Format: functional.
The test system of a further data set is MCF7. Description: Cytotoxicity against human MCF7 cells assessed as cell growth inhibition at 5 uM incubated for 48 hrs by CCK8 assay relative to control. Format: functional.
In data set [3] the target is ATP-dependent translocase ABCB1 (Homo sapiens, UniProt P08183). The data set can be described thus: Inhibition of P-gp in DOX-resistant human MCF7/ADR cells assessed as increase in intracellular Rh123 accumulation incubated for 4 hrs by flow cytometry. To be noted: mcf7adr, at 2.5 to 5 µM, dose 2.5-5 µM. Format: cell-based.
ATP-dependent translocase ABCB1, sequence (P08183 whole entry): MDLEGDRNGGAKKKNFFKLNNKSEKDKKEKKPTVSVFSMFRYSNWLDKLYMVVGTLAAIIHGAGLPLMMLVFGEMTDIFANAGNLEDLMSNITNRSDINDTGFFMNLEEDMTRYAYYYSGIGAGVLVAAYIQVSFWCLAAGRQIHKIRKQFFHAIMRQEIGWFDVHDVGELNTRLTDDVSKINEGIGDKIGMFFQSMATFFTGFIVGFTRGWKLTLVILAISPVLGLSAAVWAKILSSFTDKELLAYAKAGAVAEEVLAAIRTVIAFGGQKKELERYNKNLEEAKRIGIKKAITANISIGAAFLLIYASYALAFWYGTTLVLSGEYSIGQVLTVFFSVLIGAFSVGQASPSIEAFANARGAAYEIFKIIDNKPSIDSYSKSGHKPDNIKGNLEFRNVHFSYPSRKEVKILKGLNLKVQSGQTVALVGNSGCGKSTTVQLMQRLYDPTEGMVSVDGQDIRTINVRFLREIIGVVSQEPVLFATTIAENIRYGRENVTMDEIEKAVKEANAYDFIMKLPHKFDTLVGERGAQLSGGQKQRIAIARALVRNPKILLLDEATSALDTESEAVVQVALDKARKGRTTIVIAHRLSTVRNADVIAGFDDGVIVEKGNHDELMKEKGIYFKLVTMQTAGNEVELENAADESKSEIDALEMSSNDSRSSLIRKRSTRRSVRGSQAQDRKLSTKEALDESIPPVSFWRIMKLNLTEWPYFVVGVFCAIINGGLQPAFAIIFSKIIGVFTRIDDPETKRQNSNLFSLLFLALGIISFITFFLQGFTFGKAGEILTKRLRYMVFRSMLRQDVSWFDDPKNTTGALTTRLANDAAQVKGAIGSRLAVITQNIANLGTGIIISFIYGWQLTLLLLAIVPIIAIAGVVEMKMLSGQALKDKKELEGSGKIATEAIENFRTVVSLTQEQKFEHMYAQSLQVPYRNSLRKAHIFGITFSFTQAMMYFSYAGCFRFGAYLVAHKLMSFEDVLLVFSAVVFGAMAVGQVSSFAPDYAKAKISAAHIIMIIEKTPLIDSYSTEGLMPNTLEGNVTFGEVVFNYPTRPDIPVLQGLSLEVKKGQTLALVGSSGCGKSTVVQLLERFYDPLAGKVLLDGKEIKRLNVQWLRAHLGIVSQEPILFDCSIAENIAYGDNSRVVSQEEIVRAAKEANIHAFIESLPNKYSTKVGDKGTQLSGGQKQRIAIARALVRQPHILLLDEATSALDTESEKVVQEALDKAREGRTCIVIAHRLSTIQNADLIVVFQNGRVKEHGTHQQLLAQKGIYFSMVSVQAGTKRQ
In data set [4] the test system is NCI/ADR-RES. The data set can be described thus: Downregulation of P-gp expression in DOX-resistant human MCF7/ADR cells at 0.5 to 5 uM incubated for 48 hrs by Western blot analysis. In kind it is functional, cell-based. To be noted: dose 0.5-5 µM. On the technique in general: Immunoblotting shows a protein as a band on a membrane.

Calls of active or inactive are those of the source. The rule behind the calls is not given here.

A word on the inhibition: it is the drop in the measured response relative to a control, in per cent. On to `C/C=C/C(=O)Nc1ccc(-c2ccc(C(=O)N3CCc4cc(OC)c(OC)cc4C3)o2)cc1`, for which the “Ratio IC50” value with NCI/ADR-RES [1] amounted to 130.1. Moreover, the inhibition at 5 µM was 8.8% with NCI/ADR-RES [2] and 1.7% in the data set with MCF7.
On to `COc1cc2c(cc1OC)CN(C(=O)c1ccc(-c3ccc(NC(C)=O)cc3)o1)CC2`, for which the “Ratio IC50” value with NCI/ADR-RES [1] worked out at 18.6. Besides, the inhibition at 5 µM was 10.1% in the data set with NCI/ADR-RES [2] and 11% in the data set on MCF7.
The like results for `COc1cc2c(cc1OC)CN(C(=O)c1ccc(-c3ccc(NC(=O)C(C)(C)C)cc3)o1)CC2` were, in that order, 78.4, 23.3% and 12.9%.
In the case of `COc1cc2c(cc1OC)CN(C(=O)c1ccc(-c3ccc(NC(=O)C(C)C)cc3)o1)CC2`, the “Ratio IC50” value in the data set on NCI/ADR-RES [1] turned out to be 46.5. Moreover, the inhibition at 5 µM came out at 18.4% in the data set with NCI/ADR-RES [2] and 19.1% in the data set on MCF7.
As for `COc1cc2c(cc1OC)CN(C(=O)c1ccc(-c3ccc(NC(=O)c4ccc5ccccc5c4)cc3)o1)CC2`, the “Ratio IC50” value in the data set with NCI/ADR-RES [1] is given as 451.1. In addition, the inhibition at 5 µM in the data set on NCI/ADR-RES [2] came to 23.8%; in the data set with MCF7 it was 29.5%.
For the molecule `COc1cc2c(cc1OC)CN(C(=O)c1ccc(-c3ccc(NC(=O)c4cc5ccccc5[nH]4)cc3)o1)CC2`, in the data set on NCI/ADR-RES [1], the “Ratio IC50” value is given as 540.5. Besides, the inhibition at 5 µM in the data set with NCI/ADR-RES [2] was 15.1%; in the data set with MCF7, 13.3%.
In the case of `COc1cc2c(cc1OC)CN(C(=O)c1ccc(-c3ccc(NC(=O)/C=C/c4ccccc4)cc3)o1)CC2`, the “Ratio IC50” value in the data set with NCI/ADR-RES [1] is reported as 277.7. Also, the results for the inhibition at 5 µM in the data set with NCI/ADR-RES [2] and in the data set on MCF7 were 14.6% and 14.5%, respectively.
Consider `COc1cc2c(cc1OC)CN(C(=O)c1ccc(-c3ccc(NC(=O)c4cc5cc(F)ccc5[nH]4)cc3)o1)CC2`, for which the “Ratio IC50” value in the data set on NCI/ADR-RES [1] came out at 1163. Further, the inhibition at 5 µM was 19.8% in the data set with NCI/ADR-RES [2] and 12% with MCF7. Also, the “inhibition (INH)” value in data set [3] was “Dose-Dependent Effect”. For the same molecule, the result in the data set with NCI/ADR-RES [4] was inactive.
Turning to `COc1cc2c(cc1OC)CN(C(=O)c1ccc(-c3ccc(NC(=O)c4cccc5[nH]ccc45)cc3)o1)CC2`, in the data set on NCI/ADR-RES [1], the “Ratio IC50” value was found to be 220. Besides, the inhibition at 5 µM stood at 9.2% with NCI/ADR-RES [2] and 7.6% with MCF7.
The like results for `COc1ccc(-c2ccc(C(=O)N3CCc4cc(OC)c(OC)cc4C3)o2)cc1` were, in that order, 39.4, 25.7% and 11.2%.
Turning to `COc1cc2c(cc1OC)CN(C(=O)c1ccc(-c3ccc(NC(=O)c4c[nH]c5ccccc45)cc3)o1)CC2`, in the data set with NCI/ADR-RES [1], the “Ratio IC50” value turned out to be 347. The inhibition at 5 µM in the data set with NCI/ADR-RES [2] stood at 18.2%; in the data set with MCF7, 16.1%.
Consider `COc1cc2c(cc1OC)CN(C(=O)c1ccc(-c3ccc(NC(=O)c4cc5cc(Cl)ccc5[nH]4)cc3)o1)CC2`, for which, in the data set on NCI/ADR-RES [1], the “Ratio IC50” value came to 613.3. Moreover, the inhibition at 5 µM with NCI/ADR-RES [2] is 14.4%; with MCF7, 15.8%.
With `C/C=C/C[C@@H](C)[C@@H](O)[C@H]1C(=O)N[C@@H](CC)C(=O)N(C)CC(=O)N(C)[C@@H](CC(C)C)C(=O)N[C@@H](C(C)C)C(=O)N(C)[C@@H](CC(C)C)C(=O)N[C@@H](C)C(=O)N[C@H](C)C(=O)N(C)[C@@H](CC(C)C)C(=O)N(C)[C@@H](CC(C)C)C(=O)N(C)[C@@H](C(C)C)C(=O)N1C` [CYCLOSPORINE], in the data set on NCI/ADR-RES [2], the inhibition at 5 µM turned out to be 24.5%.
For `CCC(=O)Nc1ccc(-c2ccc(C(=O)N3CCc4cc(OC)c(OC)cc4C3)o2)cc1`, the “Ratio IC50” value in the data set on NCI/ADR-RES [1] is reported as 33.3. The values for the inhibition at 5 µM in the data set on NCI/ADR-RES [2] and in the data set with MCF7 were 23.2% and 17.2%, respectively.
For the molecule `COc1cc2c(cc1OC)CN(C(=O)c1ccc(-c3ccc(NC(=O)c4csc5ccccc45)cc3)o1)CC2`, the inhibition at 5 µM with NCI/ADR-RES [2] was 41.9%; in the data set on MCF7, 37.3%.
For the molecule `COc1cc2c(cc1OC)CN(C(=O)c1ccc(-c3ccc(NC(=O)c4cc5cc(C)ccc5[nH]4)cc3)o1)CC2`, the “Ratio IC50” value in the data set with NCI/ADR-RES [1] turned out to be 116.9. For the same molecule, the inhibition at 5 µM in the data set with NCI/ADR-RES [2] is 10.1%; in the data set with MCF7 it was 8.1%.
In the case of `COc1cc2c(cc1OC)CN(C(=O)c1ccc(-c3ccc(NC(=O)c4cc5cc(Br)ccc5[nH]4)cc3)o1)CC2`, the “Ratio IC50” value in the data set with NCI/ADR-RES [1] came out at 5473. Moreover, the inhibition at 5 µM in the data set with NCI/ADR-RES [2] was 19.5%; with MCF7, 26.8%.
Take `COc1cc2c(cc1OC)CN(C(=O)c1ccc(-c3ccc(NC(=O)Cc4cccc5ccccc45)cc3)o1)CC2`: in the data set with NCI/ADR-RES [1], the “Ratio IC50” value worked out at 168.8. Further, the inhibition at 5 µM with NCI/ADR-RES [2] stood at 26.3%.
Consider `COc1cc2c(cc1OC)CN(C(=O)c1ccc(-c3ccc(NC(=O)C4CCCC4)cc3)o1)CC2`, for which the “Ratio IC50” value with NCI/ADR-RES [1] was determined as 18.6. Moreover, the inhibition at 5 µM in the data set with NCI/ADR-RES [2] was determined as 19.8%; in the data set on MCF7, 15.7%.
With `COc1ccc2cc(C(=O)Nc3ccc(-c4ccc(C(=O)N5CCc6cc(OC)c(OC)cc6C5)o4)cc3)[nH]c2c1`, the “Ratio IC50” value with NCI/ADR-RES [1] came to 437.1. Also, the inhibition at 5 µM in the data set with NCI/ADR-RES [2] turned out to be 12.4%; in the data set with MCF7, 7.3%.
Regarding `COc1ccc2[nH]c(C(=O)Nc3ccc(-c4ccc(C(=O)N5CCc6cc(OC)c(OC)cc6C5)o4)cc3)cc2c1`, in the data set on NCI/ADR-RES [1], the “Ratio IC50” value was 214.4. Further, the inhibition at 5 µM with NCI/ADR-RES [2] came to 16.1%; in the data set with MCF7, 19.5%.
As to `COc1cc2c(cc1OC)CN(C(=O)c1ccc(-c3ccc(NC(=O)c4cc5ccccc5s4)cc3)o1)CC2`, the inhibition at 5 µM in the data set with NCI/ADR-RES [2] turned out to be 46.8%; with MCF7 it was 48.8%.
For `COc1cc2c(cc1OC)CN(C(=O)c1ccc(-c3ccc(NC(=O)C4CC4)cc3)o1)CC2`, the “Ratio IC50” value in the data set with NCI/ADR-RES [1] is given as 57.2. The inhibition at 5 µM is 10.9% with NCI/ADR-RES [2] and 12.2% in the data set with MCF7.
Consider `COc1cc2c(cc1OC)CN(C(=O)c1ccc(-c3ccc(NC(=O)c4cc5c(C)cccc5[nH]4)cc3)o1)CC2`, for which the “Ratio IC50” value in the data set with NCI/ADR-RES [1] is on record as 88.3. Moreover, the figures for the inhibition at 5 µM in the data set on NCI/ADR-RES [2] and with MCF7 were 15.1% and 16.6%, respectively.
For the molecule `COc1cc2c(cc1OC)CN(C(=O)c1ccc(-c3ccc(NC(=O)c4cc5c(F)cc(F)cc5[nH]4)cc3)o1)CC2`, in the data set on NCI/ADR-RES [1], the “Ratio IC50” value came out at 600.2. The values for the inhibition at 5 µM in the data set on NCI/ADR-RES [2] and in the data set with MCF7 were 14.7% and 9.1%, respectively.
Regarding `COc1cc2c(cc1OC)CN(C(=O)c1ccc(-c3ccc(NC(=O)c4cccc5ccccc45)cc3)o1)CC2`, in the data set with NCI/ADR-RES [1], the “Ratio IC50” value came out at 201.7. In addition, the inhibition at 5 µM came out at 28.4% in the data set with NCI/ADR-RES [2] and 34.8% with MCF7.
As for `COc1cc2c(cc1OC)CN(CCc1ccc(NC(=O)c3cc(OC)c(OC)cc3NC(=O)c3cnc4ccccc4c3)cc1)CC2`, the “Ratio IC50” value in the data set with NCI/ADR-RES [1] is reported as 319.3. Also, the inhibition at 5 µM in the data set on MCF7 came to 21.3%.
Take `COc1cc2c(cc1OC)CN(C(=O)c1ccc(-c3ccc(NC(=O)c4cc5ccc(F)cc5[nH]4)cc3)o1)CC2`: in the data set on NCI/ADR-RES [1], the “Ratio IC50” value was determined as 566.4. The inhibition at 5 µM in the data set on NCI/ADR-RES [2] amounted to 16.9%; with MCF7, 28.1%.
Consider `CCCCC(=O)Nc1ccc(-c2ccc(C(=O)N3CCc4cc(OC)c(OC)cc4C3)o2)cc1`, for which, in the data set with NCI/ADR-RES [1], the “Ratio IC50” value is recorded as 15.7. Also, the inhibition at 5 µM worked out at 13.1% with NCI/ADR-RES [2] and 17.6% in the data set with MCF7.
Consider `COc1cc2c(cc1OC)CN(C(=O)c1ccc(-c3ccc(NC(=O)c4cc5ccccc5o4)cc3)o1)CC2`, for which the figures for the inhibition at 5 µM in the data set on NCI/ADR-RES [2] and with MCF7 were 63.7% and 44.5%, respectively.
On to `COc1cc2c(cc1OC)CN(C(=O)c1ccc(-c3ccc(NC(=O)CC(C)(C)C)cc3)o1)CC2`, for which the “Ratio IC50” value in the data set on NCI/ADR-RES [1] was 52. Further, the inhibition at 5 µM in the data set with NCI/ADR-RES [2] worked out at 12.6%; in the data set on MCF7, 18.5%.
With `COc1cccc2c1C(=O)c1c(O)c3c(c(O)c1C2=O)C[C@@](O)(C(=O)CO)C[C@@H]3O[C@H]1C[C@H](N)[C@H](O)[C@H](C)O1` [DOXORUBICIN], the “Ratio IC50” value in the data set on NCI/ADR-RES [1] amounted to 1.
Turning to `COc1cc2c(cc1OC)CN(C(=O)c1ccc(-c3ccc(NC(=O)c4cc5cc([N+](=O)[O-])ccc5[nH]4)cc3)o1)CC2`, the “Ratio IC50” value in the data set on NCI/ADR-RES [1] was determined as 189.9. Moreover, the inhibition at 5 µM turned out to be 5.7% in the data set with NCI/ADR-RES [2] and 5.1% in the data set with MCF7.
As for `COc1cc2c(cc1OC)CN(C(=O)c1ccc(-c3ccc(NC(=O)c4cc5ccc(Br)cc5[nH]4)cc3)o1)CC2`, the “Ratio IC50” value with NCI/ADR-RES [1] is 497.5. Further, the inhibition at 5 µM in the data set on NCI/ADR-RES [2] came out at 14.7%; in the data set with MCF7, 7.4%.
For `COc1ccc(CCN(C)CCCC(C#N)(c2ccc(OC)c(OC)c2)C(C)C)cc1OC` (stereo not drawn), the inhibition at 5 µM with NCI/ADR-RES [2] came out at 12.2%.
`COc1cc2c(cc1OC)CN(C(=O)c1ccc(-c3ccc(NC(=O)C4CCC4)cc3)o1)CC2`: the “Ratio IC50” value in the data set on NCI/ADR-RES [1] is on record as 82.1. Also, the inhibition at 5 µM in the data set on MCF7 was 15.3%.

Source of the values: ChEMBL document CHEMBL5325411, “Design, synthesis and biological evaluation of novel phenylfuran-bisamide derivatives as P-glycoprotein inhibitors against multidrug resistance in MCF-7/ADR cell” (Eur J Med Chem, 2023).
